# Experimental data reported in ChEMBL document CHEMBL5126646, “Synthesis and Biological Evaluation of Aurachin D Analogues as Inhibitors of Mycobacterium tuberculosis Cytochrome bd Oxidase” (ACS Med Chem Lett, 2022).
# pIC50: −log10 of the molar value.
# How the values were obtained:
# [1] = system: Mycobacterium tuberculosis; test: Antitubercular activity against Mycobacterium tuberculosis mc26230 incubated for 7 days; format: functional; conditions: mc26230, 168 h, time 7 day
# [2] = system: Mycolicibacterium smegmatis; test: Growth inhibition of Mycobacterium smegmatis mc2155 harboring deltaqcr mutant incubated for 48 hrs under shaking condition; format: functional
# [3] = Growth inhibition of nonpathogenic Mycobacterium smegmatis mc2155 incubated for 48 hrs under shaking condition; conditions: mycolicibacterium smegmatis
# [4] = (§1) Inhibition of Mycobacterium tuberculosis cytochrome bd oxidase over expressed in inverted membrane vesicles of Mycobacterium smegmatis deltacydAB assessed as reduction in malate-induced increase in oxygen consumption rate measured after 60 secs in presence of cytochrome bcc-aa3 complex inhibitor TB47 by fluorespirometry; format: cell membranes, Membrane vesicle
# [5] = as §1, with “smegmatis mc2155” for “smegmatis”, “at 120” for “after 60”; format: cell membranes, Membrane vesicle
SMILES,MIC [1] [µM],MIC [2] [µM],MIC [3] [µM],pIC50 [4],pIC50 [5]
Cc1[nH]c2ccccc2c(=O)c1Cc1ccccc1,32,> 512,> 512,5.32,
CC(C)=CCC/C(C)=C/Cc1c(C)[nH]c2ccc(N)cc2c1=O,> 512,> 512,> 512,4.48,
COc1cccc2c(=O)c(C/C=C(\C)CC/C=C(\C)CCC=C(C)C)c(C)[nH]c12,64,> 512,> 512,5.89,
CC(C)=CCC/C(C)=C/CC/C(C)=C/Cc1c(C)[nH]c2ccc([N+](=O)[O-])cc2c1=O,> 512,> 512,> 512,5.74,
CC(C)=CCC/C(C)=C/CC/C(C)=C/Cc1c(C)[nH]c2ccc(N=[N+]=[N-])cc2c1=O,512,> 512,> 512,5.33,
CC(C)=CCC/C(C)=C/CC/C(C)=C/Cc1c(C)[nH]c2cccc(O)c2c1=O,256,> 512,> 512,6.21,
CC(C)=CCC/C(C)=C/CC/C(C)=C/Cc1c(C)[nH]c2cc(C(F)(F)F)ccc2c1=O,> 512,> 512,> 512,< 3.00,
CC(C)=CCC/C(C)=C/CC/C(C)=C/Cc1c(C)[nH]c2cc(N)ccc2c1=O,> 512,> 512,> 512,5.74,
COc1ccc2c(=O)c(C/C=C(\C)CC/C=C(\C)CCC=C(C)C)c(C)[nH]c2c1,> 512,> 512,> 512,6.89,
CC(C)=CCC/C(C)=C/CC/C(C)=C/Cc1c(C)[nH]c2cc(C)ccc2c1=O,> 512,> 512,> 512,4.51,
CC(C)=CCC/C(C)=C/CC/C(C)=C/Cc1c(C)[nH]c2ccc(F)cc2c1=O,8,> 512,> 512,6.60,
COc1cccc2[nH]c(C)c(C/C=C(\C)CC/C=C(\C)CCC=C(C)C)c(=O)c12,32,> 512,> 512,6.44,
CC(C)=CCC[C@@H](C)CCc1c(C)[nH]c2ccccc2c1=O,4,> 512,> 512,6.46,
CC(C)=CCC/C(C)=C/CC/C(C)=C/Cc1c(C)[nH]c2ccc(O)cc2c1=O,256,> 512,> 512,6.23,
CC(C)=CCC[C@@H](C)CCc1c(C)[nH]c2cc(N)ccc2c1=O,512,> 512,> 512,4.28,
CC(C)=CCC/C(C)=C/CC/C(C)=C/Cc1c(C)[nH]c2ccc(N)cc2c1=O,> 512,> 512,> 512,5.30,
CC(C)=CCC/C(C)=C/CC/C(C)=C/Cc1c(C)[nH]c2ccc(Cl)cc2c1=O,> 512,> 512,> 512,5.05,
CC(C)=CCC/C(C)=C/CC/C(C)=C/Cc1c(C)[nH]c2cc(F)ccc2c1=O,256,> 512,> 512,6.43,
CC(C)=CCC/C(C)=C/CC/C(C)=C/Cc1c(C)[nH]c2cc(Cl)cc(Cl)c2c1=O,> 512,> 512,> 512,5.34,
COc1ccc2[nH]c(C)c(C/C=C(\C)CC/C=C(\C)CCC=C(C)C)c(=O)c2c1,256,> 512,> 512,6.17,
CC(C)=CCC/C(C)=C/CC/C(C)=C/Cc1c(C)[nH]c2cc(Cl)ccc2c1=O,> 512,> 512,> 512,< 3.00,
CC(C)=CCC/C(C)=C/Cc1c(C)[nH]c2ccccc2c1=O,> 512,> 512,> 512,5.96,
CC(C)=CCc1c(C)[nH]c2ccccc2c1=O,32,> 512,> 512,5.24,
CC(C)=CCC/C(C)=C/CC/C(C)=C/Cc1c(C)[nH]c2cccc(F)c2c1=O,256,> 512,> 512,5.12,
CC(C)=CCC/C(C)=C/CC/C(C)=C/Cc1c(C)[nH]c2ccccc2c1=O [AURACHIN D],8,> 512,> 512,,6.82
